Assays:
Experiment in all cases: Prolyl-peptidase detection on agar medium (Example 12); as to color of the colony: key: B corresponds to fluorescent blue; R corresponds to pink
Type in all cases: cell-based
Conditions in all cases: 50 mg/l
[1] = system: Candida albicans; as to color of the colony: key: B corresponds to fluorescent blue; R corresponds to pink
Method: (§1) The detection media were prepared by mixing 1.68 g of yeast extract (bioMérieux), 1.4 g of biocase (bioMérieux), 1.26 g of malt extract (bioMérieux), 0.08 g of glucose (Merck) and 3.92 g of agar (bioMérieux).
(§2) 280 ml of osmosed water were added to the powder, and the mixture was then melted in a waterbath at 100° C. The product was separated into two flasks, each of 140 ml. Autoclaving was carried out at 121° C. for 15 min and the product was cooled to 50° C. in a waterbath.
(§3) L-Prolyl-7-amino-4-methylcoumarin (Pro-AMC, Bachem) was then added to the first flask as a control and L-prolyl-9-aminobenzo[a]phenoxazin-5-one (Pro-ABP, substrate of the invention obtained in Example 2, in which the amino acid is L-Proline) was then added to the second flask at the final concentration of 50 mg/l.
(§4) The size of the colonies, their coloration and also the intensity of this coloration were noted.

[2] = system: Candida glabrata
Method: as §1, §2, §3, §4

[3] = system: Candida guilliermondii; as to color of the colony: key: B corresponds to fluorescent blue; R corresponds to pink
Method: as §1, §2, §3, §4

[4] = system: Candida tropicalis
Method: as §1, §2, §3, §4

[5] = system: Enterococcus faecalis
Method: as §1, §2, §3, §4

[6] = system: Escherichia coli; as to color of the colony: key: B corresponds to fluorescent blue; R corresponds to pink
Method: as §1, §2, §3, §4

[7] = system: Klebsiella pneumoniae
Method: as §1, §2, §3, §4

[8] = system: Saccharomyces cerevisiae
Method: as §1, §2, §3, §4

[9] = system: Trichosporon beigelii; as to color of the colony: key: B corresponds to fluorescent blue; R corresponds to pink
Method: as §1, §2, §3, §4

Row | Molecule | growth diameter ([1]; 24 h) | intensity of coloration, scale 0 to 4 ([1]; 24 h) | growth diameter ([1]; 48 h) | intensity of coloration, scale 0 to 4 ([1]; 48 h) | growth diameter ([2]; 24 h) | growth diameter ([2]; 48 h) | growth diameter ([3]; 24 h) | growth diameter ([3]; 48 h) | intensity of coloration, scale 0 to 4 ([3]; 48 h) | growth diameter ([4]; 24 h) | growth diameter ([4]; 48 h) | growth diameter ([5]; 24 h) | growth diameter ([5]; 48 h) | growth diameter ([6]; 24 h) | intensity of coloration, scale 0 to 4 ([6]; 24 h) | growth diameter ([6]; 48 h) | intensity of coloration, scale 0 to 4 ([6]; 48 h) | growth diameter ([7]; 24 h) | growth diameter ([8]; 24 h) | growth diameter ([8]; 48 h) | further results
1 | Cc1cc(=O)oc2cc(NC(=O)[C@@H]3CCCN3)ccc12 [Pro-AMC, L-Prolyl-7-amino-4-methylcoumarin, reference compound] | 1.2 mm | 2 | 2.5 mm | 3 | 0.3 mm | 1.7 mm | 0.4 mm | 1.8 mm | 3 | 1.2 mm | 2 mm | 0.8 mm | 1.2 mm | 3 mm | 0.5 | 3 mm | 0.5 | 2.5 mm | 0.3 mm | 1.7 mm | intensity of coloration, scale 0 to 4 ([7]; 24 h): 0.25; growth diameter ([7]; 48 h): 3 mm; intensity of coloration, scale 0 to 4 ([7]; 48 h): 0.25; growth diameter ([9]; 24 h): 0.7 mm; intensity of coloration, scale 0 to 4 ([9]; 24 h): 0.25; growth diameter ([9]; 48 h): 3 mm; intensity of coloration, scale 0 to 4 ([9]; 48 h): 2
2 | L-prolyl-9-aminobenzo[a]phenoxazin-5-one [Pro-ABP] | 0.8 mm | 2 | 2.5 mm | 2 | 0.4 mm | 1.8 mm | 0.3 mm | 1.8 mm | 2 | 1.2 mm | 1.8 mm | 0.7 mm | 0.7 mm | 3 mm | 0.25 | 3 mm | 3 | 2 mm | 0.5 mm | 2 mm | color of the colony ([1]; 24 h): R; color of the colony ([1]; 48 h): R; color of the colony ([3]; 48 h): R; color of the colony ([6]; 24 h): R; color of the colony ([6]; 48 h): R; growth diameter ([9]; 24 h): 0.5 mm; color of the colony ([9]; 48 h): R; growth diameter ([9]; 48 h): 1.8 mm; intensity of coloration, scale 0 to 4 ([9]; 48 h): 2

From patent publication US7695930B2, “Method for the detection, identification and/or quantification of microoganisms with peptidase activity using phenoxazinone derivatives as enzyme substrates” (Biomerieux, priority 2003, dated 2010)
